Reference: patent US20230192705A1, “SHP2 INHIBITORS, COMPOSITIONS AND USES THEREOF” (Betta Pharmaceuticals Co., Ltd, priority 2020, published 2023)

How the values were obtained:
hERG channel = target: T1, hERG channel (Homo sapiens, UniProt Q12809); experiment: Patch clamp assay to test the effect of compound on hERG channel; format: cell-based; settings: manual patch clamp, HEK 293 cells expressed with hERG, concentration for half maximum effect
T1 construct: expressed in transfected cells; host or cells: HEK-293
T1 sequence (Q12809 whole entry): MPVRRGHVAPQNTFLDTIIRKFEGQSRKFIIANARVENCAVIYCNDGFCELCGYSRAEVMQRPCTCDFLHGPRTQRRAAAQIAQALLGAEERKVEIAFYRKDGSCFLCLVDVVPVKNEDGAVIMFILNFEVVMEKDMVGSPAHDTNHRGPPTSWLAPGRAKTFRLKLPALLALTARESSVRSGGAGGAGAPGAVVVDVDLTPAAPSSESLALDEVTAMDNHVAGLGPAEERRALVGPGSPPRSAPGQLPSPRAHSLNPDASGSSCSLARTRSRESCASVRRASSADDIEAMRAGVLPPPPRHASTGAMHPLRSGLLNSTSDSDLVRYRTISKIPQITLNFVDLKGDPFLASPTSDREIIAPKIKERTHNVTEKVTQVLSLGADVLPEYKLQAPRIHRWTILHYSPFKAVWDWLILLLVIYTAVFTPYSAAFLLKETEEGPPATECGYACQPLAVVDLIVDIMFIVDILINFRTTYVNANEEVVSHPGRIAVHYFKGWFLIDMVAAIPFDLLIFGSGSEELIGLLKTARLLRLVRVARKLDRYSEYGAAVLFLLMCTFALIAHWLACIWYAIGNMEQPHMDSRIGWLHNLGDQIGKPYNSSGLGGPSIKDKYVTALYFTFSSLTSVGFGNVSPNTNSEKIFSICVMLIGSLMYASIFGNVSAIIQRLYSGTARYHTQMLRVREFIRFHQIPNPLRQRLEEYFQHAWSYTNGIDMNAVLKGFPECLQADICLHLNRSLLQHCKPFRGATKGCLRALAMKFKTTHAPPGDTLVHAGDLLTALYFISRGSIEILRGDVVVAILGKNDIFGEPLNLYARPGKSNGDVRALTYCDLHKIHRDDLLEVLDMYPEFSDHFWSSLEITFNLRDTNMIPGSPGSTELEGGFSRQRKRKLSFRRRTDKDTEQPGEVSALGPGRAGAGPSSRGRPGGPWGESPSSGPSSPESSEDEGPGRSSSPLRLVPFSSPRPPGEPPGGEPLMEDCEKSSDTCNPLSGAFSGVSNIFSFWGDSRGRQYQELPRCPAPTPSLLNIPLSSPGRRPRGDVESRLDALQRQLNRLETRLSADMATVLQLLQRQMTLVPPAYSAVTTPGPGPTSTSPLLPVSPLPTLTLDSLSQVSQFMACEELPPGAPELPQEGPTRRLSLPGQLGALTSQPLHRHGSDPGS
Experimental: 10 mL extracellular solution was used to dilute the stock solution, making the final concentrations of test compound were 0.3 μM, 1 μM, 3 μM, 10 μM and 30 μM.
The solubility of compound was visually observed.
The cell line was derived from HEK-293 cells, and grown in a humidified environment at 37° C. under 5% CO2, using the media formulation below. The cell line should not be allowed to exceed 80% confluence within the culture vessel to prevent contact inhibition causing senescence and should thus be passaged every 3/4 days using a seeding density of 2*10^6 cells per T175 flask. Cell lines were be pre-washed with phosphate buffered saline before harvesting with Trypsin/EDTA and seeded into new flasks.
HEK 293 cells expressed with hERG were plated on cover slips overnight with the cell density less than 50% of confluence. Cells used for electrophysiological study were transferred to a small cell bath (1 mL) mounted on the stage of an inverted microscope (Diaphot, Nikon) and were perfused with external solution containing (in mM) 130 NaCl, 4 KCl, 1.8 CaCl2), 1 MgCl2, 10 glucose and 10 HEPES (pH 7.4 with NaOH), the perfusion rate was 4 mL/min. The internal pipette solution contained (in mM) 130 KCl, 1 MgCl2, 5 ethylene glycol-bis(baminoethyl ether)-N,N,N8,N8-tetraacetic acid, 5 MgATP and 10 HEPES (pH 7.2 with KOH). An HEKA EPC-10 patch-clamp amplifier and PATCHMASTER acquisition program were used to record membrane currents (HEKA Instruments IncD-67466 Lambrecht/Pfalz Germany). All experiments were performed at room temperature (22-23° C.).
The Model P-97 micropipette puller (Sutter Instrument Company, One Digital Drive, Novato, Calif. 94949) was used to pull glass patch pipettes (BF150-86-10) in all experiments.
The experiments were initiated with a 2 min vehicle control period after forming a whole cell configuration with less 5% run-down in 5 min and the tail currents in the report were at least greater than 500 pA. After a 2 min vehicle control period, the perfusion was switched to the reservoir containing the compound at the first concentration. The same procedure was repeated 3-5 times so that each cell was exposed to 4-6 escalating concentrations of compound. The time courses for block and unblock of hERG during compounds exposure and washout were continuously recorded.
The peak tail of hERG was generated by applying 2-sec depolarizing every 12 sec steps from a holding potential of −80 mV, the peak of tail currents were measured at a 5-sec repolarizing pulse at −50 mV.
hERG peak tail currents were directly measured from a 5 sec repolarization pulse at −50 mV. The fraction of control current was plotted as a function of logarithm of compound concentration. To determine the concentration of compound for halfmaximum effect, the concentration-response curve was fitted by Hill equation as shown follow.
where Y is the observed value, Bottom is the lowest observed value (0), Top is the highest observed value (1), and the Hillcoefficient gives the largest absolute value of the slope of the curve.
Data were analyzed by a combination of PATCHMASTER ((HEKA Instruments IncD-67466 Lambrecht/Pfalz Germany) and Origin (OriginLab Corporation, Northampton, Mass.) software programs.
Data were expressed as mean±SEM.

SHP2 = target: T2, SHP2 (Homo sapiens, UniProt Q06124); experiment: SHP2 allosteric inhibitor enzyme activity assay (DiFMUP fluorescence); format: biochemical
T2 sequence (Q06124 1-593): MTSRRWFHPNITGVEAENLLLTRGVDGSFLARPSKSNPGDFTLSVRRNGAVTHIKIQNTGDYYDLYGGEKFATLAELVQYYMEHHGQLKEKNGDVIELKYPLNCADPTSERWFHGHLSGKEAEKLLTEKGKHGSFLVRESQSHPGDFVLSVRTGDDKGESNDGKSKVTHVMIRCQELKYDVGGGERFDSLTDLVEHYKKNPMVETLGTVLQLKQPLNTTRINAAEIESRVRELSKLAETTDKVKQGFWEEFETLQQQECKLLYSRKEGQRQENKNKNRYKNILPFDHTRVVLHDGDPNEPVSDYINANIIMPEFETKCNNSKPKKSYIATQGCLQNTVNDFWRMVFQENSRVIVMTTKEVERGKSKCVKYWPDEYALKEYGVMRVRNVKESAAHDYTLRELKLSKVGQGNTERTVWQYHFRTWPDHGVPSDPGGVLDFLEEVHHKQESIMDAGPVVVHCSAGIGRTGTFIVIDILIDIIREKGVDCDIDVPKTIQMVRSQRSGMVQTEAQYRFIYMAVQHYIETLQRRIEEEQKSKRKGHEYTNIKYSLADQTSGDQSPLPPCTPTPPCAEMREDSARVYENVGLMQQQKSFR
Summary of the method: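 SHP2 activated by 0.5 μM IRS1_pY1172(dPEG8)pY1222 peptide, 0.2 ng enzyme per well, 1 h at room temperature with compound (1 μM top, 3-fold series), then DiFMUP substrate 1 h. Buffer: 60 mM HEPES, 75 mM NaCl, 75 mM KCl, 0.05% BRIJ-35, 1 mM EDTA, 5 mM DTT. Fluorescence ex 340/em 450 nm; IC50 by variable-slope fit.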

[1] = tested on: lung cancer NCI-H358 cell; experiment: Cell proliferation assay (CellTiter-Glo), NCI-H358; format: cell-based; settings: Homo sapiens; NCI-H358, 96 hrs, CTG; class symbols; read-out: Compound on NCI-H358 cell IC50
Experimental: (§1) The effects of the compounds on the proliferation of leukemia MV-4-11 cell and lung cancer NCI-H358 cell were evaluated by in vitro cell test. The assay used in this study was the CELL TITER-GLO (CTG) luminescence assay, which can detect the number of living cells by quantitative determination of ATP. Because ATP is involved in a variety of enzymatic reactions in vivo and is an indicator of the metabolism of living cells, its content can directly reflects the number and state of cells. During the experiment, Celltiter-Glo™ reagent was added to the cell culture medium to measure the luminescence value. The luminescence value was proportional to the amount of ATP, which in turn was positively correlated with the number of living cells. Therefore, ATP content can be used to detect cell viability.
A bottle of NCI-H358 cells in logarithmic growth phase was taken, the cells were digested and resuspend, counted, and then the cell density was adjusted. After that, the cells were inoculated into a 96-well Ultra-Low Attachment Microplate (Corning #3474), 2000 cells were inoculated in each well, and the well plate was placed in an incubator at 37° C. and 5% CO2, and the compounds of the invention were added for conducting.
(§2) An appropriate amount of the compound of the invention was taken for cell treatment, and the final concentration of the compound from high to low was 1000 nM, 333.3 nM, 111.1 nM, 37.04 nM, 12.35 nM, 4.115 nM, 1.372 nm, 0.4572 nM, 0.1524 nM, 0 nM, respectively. The orifice plate was cultured in an incubator at 37° C. and 5% CO2. Only adding medium without adding cell hole was set as blank group. Compound concentration of 0 nM group was zero control group.
NCI-H358 cells were cultured for 96 hrs, then 50 μL CellTiter-Glo® Luminescent cell viability assay solution was added to each well, and the cells were gently shaken for 2 mins, and incubated at room temperature for 10 mins. The cell reaction system was transferred to 96-well Microplate (Corning #3917). The detection values of each well were read on the multi-functional microplate reader.
(§3) The inhibition rate is calculated according to the luminous value reading,
(§4) Inhibition rate %=(1−(administration group value−blank group value)/(control group value−blank group value)*100
(§5) The log (inhibitor) vs. response variable slope of GraphPad Prism was used to fit the dose-response curve and calculate the IC50 of compounds inhibiting cell proliferation.

leukemia MV-4-11 cell = experiment: Cell proliferation assay (CellTiter-Glo), MV-4-11; format: cell-based; settings: Homo sapiens, MV4-11; MV-4-11, 120 hrs, CTG; class symbols; read-out: Compound on MV-4-11 cell IC50
Experimental: as §1
A bottle of MV-4-11 cells in logarithmic growth phase was taken, the cells were collected, centrifuged, resuspend, counted, and then inoculated into 96-well Microplate (Corning #3917), with 4000 cells inoculated in each well. The plates were placed in an incubator at 37° C. and 5% CO2 for 24 hrs culture, and the compounds of the invention were added for conducting.
as §2
After cultured for 120 hrs, MV-4-11 cells were added with 50 μL CellTiter-Glo® Luminescent cell viability assay solution in each well, gently shaken for 2 mins, and incubated at room temperature for 10 mins. The detection values of each well were read on the multi-functional microplate reader.
as §3, §4, §5

IC50 (SHP2; class symbols)	IC50 (SHP2; numeric values)	IC50 [1]	IC50 (leukemia MV-4-11 cell)	SMILES	IC50 (hERG channel)
–	0.48 nM	–	–	N[C@@H]1c2ccccc2CC12CCN(c1nc3[nH]nc([C@H]4C[C@@H]4c4ccccc4)c3c(=O)[nH]1)CC2 [Example 185]	0.59 µM
≤ 20 nM	–	–	–	N[C@@H]1c2ccccc2CC12CCN(c1nc3[nH]nc(C4(c5ccccc5)CCC4)c3c(=O)[nH]1)CC2 [Example 90]	4.95 µM
–	1.9 nM	–	–	N[C@@H]1c2ccccc2CC12CCN(c1nc3[nH]nc(C4(c5cccc(O)c5)CC4)c3c(=O)[nH]1)CC2 [Example 42, (S)-6-(1-amino-1,3-dihydrospiro[indene-2,4′-piperidin]-1′-yl)-3-(1-(3-hydroxyphenyl)cyclopropyl)-1,5-dihydro-4H-pyrazolo[3,4-d]pyrimidin-4-one]	> 30 µM
≤ 20 nM	–	–	–	CCC(c1ccccc1)c1n[nH]c2nc(N3CCC4(CC3)Cc3ccccc3[C@H]4N)[nH]c(=O)c12 (stereo partly drawn) [Example 217, 6-((S)-1-amino-1,3-dihydrospiro[indene-2,4′-piperidin]-1′-yl)-3-(1-phenylpropyl)-1,5-dihydro-4H-pyrazolo[3,4-d]pyrimidin-4-one]	0.54 µM

The next lines start with the molecule.

SMILES	IC50 (SHP2; class symbols)	IC50 (SHP2; numeric values)	IC50 [1]	IC50 (leukemia MV-4-11 cell)	IC50 (hERG channel)
COc1ccc(C2(c3n[nH]c4nc(N5CCC6(CC5)Cc5ccccc5[C@H]6N)[nH]c(=O)c34)CC2)cc1OC [Example 221, (S)-6-(1-amino-1,3-dihydrospiro[indene-2,4′-piperidin]-1′-yl)-3-(1-(3,4-dimethoxyphenyl)cyclopropyl)-1,5-dihydro-4H-pyrazolo[3,4-d]pyrimidin-4-one]	≤ 20 nM	–	–	–	> 30 µM
N[C@@H]1c2ccccc2CC12CCN(c1nc3[nH]nc(C4(n5cccn5)CC4)c3c(=O)[nH]1)CC2 [Example 255, (S)-3-(1-(1H-pyrazol-1-yl)cyclopropyl)-6-(1-amino-1,3-dihydrospiro[indene-2,4′-piperidin]-1′-yl)-1,5-dihydro-4H-pyrazolo[3,4-d]pyrimidin-4-one]	–	–	–	–	> 30 µM
N[C@@H]1c2ccccc2CC12CCN(c1nc3[nH]nc(C4(c5cccc(-n6cccn6)c5)CC4)c3c(=O)[nH]1)CC2 [Example 38, (S)-3-(1-(3-(1H-pyrazol-1-yl)phenyl)cyclopropyl)-6-(1-amino-1,3-dihydrospiro[indene-2,4′-piperidin]-1′-yl)-1,5-dihydro-4H-pyrazolo[3,4-d]pyrimidin-4-one]	–	3.1 nM	–	–	14.2 µM
N[C@@H]1c2ccccc2CC12CCN(c1nc3[nH]nc(C4(c5nc6ccccc6o5)CC4)c3c(=O)[nH]1)CC2 [Example 252, (S)-6-(1-amino-1,3-dihydrospiro[indene-2,4′-piperidin]-1′-yl)-3-(1-(benzo[d]oxazol-2-yl)cyclopropyl)-1,5-dihydro-4H-pyrazolo[3,4-d]pyrimidin-4-one]	≤ 20 nM	–	–	–	20.9 µM
CCOC(=O)Nc1ccc(C2(c3n[nH]c4nc(N5CCC6(CC5)Cc5ccccc5[C@H]6N)[nH]c(=O)c34)CC2)cc1 [Example 231, ethyl (S)-(4-(1-(6-(1-amino-1,3-dihydrospiro[indene-2,4′-piperidin]-1′-yl)-4-oxo-4,5-dihydro-1H-pyrazolo[3,4-d]pyrimidin-3-yl)cyclopropyl)phenyl)carbamate]	–	–	20 to 60 nM	≤ 20 nM	7.5 µM
COc1ccc(C2(c3n[nH]c4nc(N5CCC6(CC5)Cc5ccccc5[C@H]6N)[nH]c(=O)c34)CC2)cc1 [Example 19, (S)-6-(1-amino-1,3-dihydrospiro[indene-2,4′-piperidin]-1′-yl)-3-(1-(4-methoxyphenyl)cyclopropyl)-1,5-dihydro-4H-pyrazolo[3,4-d]pyrimidin-4-one]	–	–	20 to 60 nM	≤ 20 nM	11.7 µM
